How the values were obtained:
murine sEH = molecular target: T1, murine sEH (Mus musculus, UniProt P34914); assay: Enzymatic sEH activity assay; assay type: biochemical
T1 sequence (P34914 1-554): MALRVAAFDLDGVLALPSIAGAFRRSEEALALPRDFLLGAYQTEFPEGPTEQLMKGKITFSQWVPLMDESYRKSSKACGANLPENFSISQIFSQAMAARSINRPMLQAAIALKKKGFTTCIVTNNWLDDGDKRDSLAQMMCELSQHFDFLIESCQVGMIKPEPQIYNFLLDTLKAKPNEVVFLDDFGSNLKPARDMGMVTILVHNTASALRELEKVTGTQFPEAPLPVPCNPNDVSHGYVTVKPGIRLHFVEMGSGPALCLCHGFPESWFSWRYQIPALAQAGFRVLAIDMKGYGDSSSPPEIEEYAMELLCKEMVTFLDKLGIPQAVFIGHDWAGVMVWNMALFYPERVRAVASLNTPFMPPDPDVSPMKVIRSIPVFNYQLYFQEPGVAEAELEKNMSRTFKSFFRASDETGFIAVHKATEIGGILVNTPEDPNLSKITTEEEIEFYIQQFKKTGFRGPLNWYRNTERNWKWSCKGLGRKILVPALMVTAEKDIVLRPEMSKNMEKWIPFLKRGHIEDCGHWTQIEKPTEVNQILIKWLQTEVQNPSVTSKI

[1] = Microsomal stability, human; assay type: in vitro ADME; settings: after 60 min, pooled human microsomes, NADPH, 37 °C
[2] = Microsomal stability, mouse; assay type: in vitro ADME; settings: after 60 min, pooled mouse microsomes, NADPH, 37 °C
CYP2C9 = CYP2C9 (Homo sapiens, UniProt P11712); assay: Cytochrome P450 inhibition assay, CYP2C9; assay type: biochemical; settings: probe 7-methoxy-4-(trifluoromethyl)coumarin
CYP2D6 = CYP2D6 (Homo sapiens, UniProt P10635); assay: Cytochrome P450 inhibition assay, CYP2D6; assay type: biochemical
CYP3A4 = CYP3A4 (Homo sapiens, UniProt P08684); assay: Cytochrome P450 inhibition assay, CYP3A4; assay type: biochemical; settings: probe dibenzylfluorescein (DBF)
[3] = predicted BBB permeation class
human sEH = molecular target: T2, human sEH (Homo sapiens, UniProt P34913); assay: Enzymatic sEH activity assay; assay type: biochemical
T2 sequence (P34913 1-555): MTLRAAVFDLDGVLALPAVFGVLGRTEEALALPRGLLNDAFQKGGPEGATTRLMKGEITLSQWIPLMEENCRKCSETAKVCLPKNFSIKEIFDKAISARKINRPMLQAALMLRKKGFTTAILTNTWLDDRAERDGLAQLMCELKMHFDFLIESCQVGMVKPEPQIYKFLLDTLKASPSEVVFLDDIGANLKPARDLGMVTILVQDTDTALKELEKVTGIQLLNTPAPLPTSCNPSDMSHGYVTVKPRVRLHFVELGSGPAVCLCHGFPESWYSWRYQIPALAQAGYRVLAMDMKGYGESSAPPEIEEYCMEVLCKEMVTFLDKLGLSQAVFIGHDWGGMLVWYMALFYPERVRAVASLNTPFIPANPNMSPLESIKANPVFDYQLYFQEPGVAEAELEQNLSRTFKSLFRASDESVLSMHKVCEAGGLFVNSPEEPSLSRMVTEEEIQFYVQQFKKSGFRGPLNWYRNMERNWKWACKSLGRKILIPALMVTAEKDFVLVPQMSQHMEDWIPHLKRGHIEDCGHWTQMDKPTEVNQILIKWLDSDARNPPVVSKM

hERG = hERG (Homo sapiens, UniProt Q12809); assay: hERG inhibition assay; assay type: cell-based; settings: CHO cells transfected with hERG (CHO hERG-Duo cell line)
SH-SY5Y cells = assay: Cytotoxicity in SH-SY5Y cells; assay type: cell-based, human; settings: 100 µM, MTT and PI assays
[4] = molecular target: T3, human soluble epoxide hydrolase (hsEH) (Homo sapiens, UniProt P34913); assay: sEH immunoblotting in HEK293 cells; assay type: cell-based; settings: HEK293, 4 h treatment, 10-fold titration 10 nM to 10 µM
T3 sequence (P34913 1-555): T2 sequence (P34913 1-555)

[5] = Pharmacokinetic study in plasma and brain, subcutaneous; assay type: in vivo, male CD1 mice; settings: for AUC: male CD1 mice, 5 mg/kg single dose s.c.
[6] = test system: paclitaxel-induced tactile allodynia; assay: Paclitaxel-induced neuropathic pain, mechanical allodynia; assay type: in vivo, female WT-CD1 mice
[7] = male, CD1, mouse, plasma, sc, 5 mg/kg

Sequence of CYP2D6 (P10635 whole entry): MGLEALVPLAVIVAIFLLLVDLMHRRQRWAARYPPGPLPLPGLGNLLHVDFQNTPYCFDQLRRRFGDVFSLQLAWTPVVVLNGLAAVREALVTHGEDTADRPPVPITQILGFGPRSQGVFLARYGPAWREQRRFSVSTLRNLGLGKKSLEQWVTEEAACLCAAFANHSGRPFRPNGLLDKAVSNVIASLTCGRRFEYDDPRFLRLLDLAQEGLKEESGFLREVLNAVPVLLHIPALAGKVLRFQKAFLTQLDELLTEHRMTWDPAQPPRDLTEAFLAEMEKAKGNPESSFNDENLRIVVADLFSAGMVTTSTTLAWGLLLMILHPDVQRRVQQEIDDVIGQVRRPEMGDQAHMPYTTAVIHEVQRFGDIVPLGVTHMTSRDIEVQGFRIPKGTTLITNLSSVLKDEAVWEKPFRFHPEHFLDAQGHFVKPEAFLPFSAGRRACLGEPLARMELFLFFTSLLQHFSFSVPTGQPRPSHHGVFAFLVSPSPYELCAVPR
Sequence of CYP2C9 (P11712 whole entry): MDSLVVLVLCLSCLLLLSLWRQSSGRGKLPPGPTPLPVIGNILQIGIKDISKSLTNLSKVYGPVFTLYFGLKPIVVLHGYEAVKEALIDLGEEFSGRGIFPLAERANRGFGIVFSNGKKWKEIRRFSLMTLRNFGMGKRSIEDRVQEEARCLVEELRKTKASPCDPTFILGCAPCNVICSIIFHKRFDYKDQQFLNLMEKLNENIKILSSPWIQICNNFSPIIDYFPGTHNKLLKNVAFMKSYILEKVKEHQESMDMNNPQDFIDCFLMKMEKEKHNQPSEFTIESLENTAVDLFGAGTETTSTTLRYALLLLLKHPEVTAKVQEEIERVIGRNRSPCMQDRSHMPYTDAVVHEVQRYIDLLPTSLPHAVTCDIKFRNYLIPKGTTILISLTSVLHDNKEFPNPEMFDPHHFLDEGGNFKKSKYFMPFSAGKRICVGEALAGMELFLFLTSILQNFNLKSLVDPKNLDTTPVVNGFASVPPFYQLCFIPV
Sequence of CYP3A4 (P08684 whole entry): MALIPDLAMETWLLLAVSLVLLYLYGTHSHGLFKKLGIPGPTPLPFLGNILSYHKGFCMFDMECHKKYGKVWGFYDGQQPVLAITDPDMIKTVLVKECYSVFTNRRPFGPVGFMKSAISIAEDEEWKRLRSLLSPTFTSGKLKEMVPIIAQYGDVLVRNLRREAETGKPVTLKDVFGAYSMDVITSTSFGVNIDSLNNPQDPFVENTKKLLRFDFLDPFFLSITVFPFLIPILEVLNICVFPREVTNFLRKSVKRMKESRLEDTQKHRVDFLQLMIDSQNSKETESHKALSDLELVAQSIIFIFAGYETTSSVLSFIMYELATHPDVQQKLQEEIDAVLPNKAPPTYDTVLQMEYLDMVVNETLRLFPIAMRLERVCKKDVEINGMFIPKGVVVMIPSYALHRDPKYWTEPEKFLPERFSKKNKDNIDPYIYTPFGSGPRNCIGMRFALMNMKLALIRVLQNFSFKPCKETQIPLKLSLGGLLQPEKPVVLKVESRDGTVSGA
Sequence of hERG (Q12809 whole entry): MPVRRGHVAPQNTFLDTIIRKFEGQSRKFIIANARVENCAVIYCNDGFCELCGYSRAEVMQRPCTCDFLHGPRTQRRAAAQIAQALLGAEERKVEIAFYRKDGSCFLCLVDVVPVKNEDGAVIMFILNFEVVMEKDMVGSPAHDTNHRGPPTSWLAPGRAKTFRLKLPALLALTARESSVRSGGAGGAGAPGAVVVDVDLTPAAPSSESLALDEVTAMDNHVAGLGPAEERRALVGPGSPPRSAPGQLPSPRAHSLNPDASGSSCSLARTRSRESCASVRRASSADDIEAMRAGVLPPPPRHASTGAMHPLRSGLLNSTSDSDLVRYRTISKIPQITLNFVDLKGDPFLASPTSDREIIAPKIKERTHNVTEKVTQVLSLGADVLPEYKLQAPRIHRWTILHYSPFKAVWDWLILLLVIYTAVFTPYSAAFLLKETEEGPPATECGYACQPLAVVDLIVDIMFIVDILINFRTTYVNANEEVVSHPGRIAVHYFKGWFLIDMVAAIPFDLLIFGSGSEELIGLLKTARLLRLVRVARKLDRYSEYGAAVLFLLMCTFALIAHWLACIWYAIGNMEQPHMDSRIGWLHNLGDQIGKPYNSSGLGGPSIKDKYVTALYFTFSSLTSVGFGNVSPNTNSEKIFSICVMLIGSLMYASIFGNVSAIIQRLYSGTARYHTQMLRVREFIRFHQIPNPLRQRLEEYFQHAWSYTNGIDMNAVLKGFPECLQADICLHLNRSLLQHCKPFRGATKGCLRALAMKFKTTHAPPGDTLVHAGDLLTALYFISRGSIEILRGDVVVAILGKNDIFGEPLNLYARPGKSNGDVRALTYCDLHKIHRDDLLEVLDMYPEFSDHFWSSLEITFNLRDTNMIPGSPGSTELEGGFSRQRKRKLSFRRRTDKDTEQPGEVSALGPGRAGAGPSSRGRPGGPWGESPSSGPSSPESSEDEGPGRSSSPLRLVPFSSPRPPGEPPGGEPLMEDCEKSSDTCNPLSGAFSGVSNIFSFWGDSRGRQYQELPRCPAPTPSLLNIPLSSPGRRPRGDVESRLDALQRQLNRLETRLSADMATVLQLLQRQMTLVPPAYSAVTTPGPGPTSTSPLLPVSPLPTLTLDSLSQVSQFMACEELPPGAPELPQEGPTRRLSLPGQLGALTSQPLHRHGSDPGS

CC(=O)N1CCC(NC(=O)NC23CC4CC(C)(CC(C2)c2cc(F)ccc24)C3)CC1 (stereo not drawn) [Compound 14, 1-(1-Acetylpiperidin-4-yl)-3–(2-fluoro-9-methyl-5,6,8,9,10,11-hexahydro-7H-5,9:7,11-dimethanobenzo[9]annulen-7-yl)urea]
IC50 (murine sEH): 0.6 nM
Microsomal stability Human, percentage of remaining compound [1]: 22%
Microsomal stability Mouse, percentage of remaining compound [2]: 4%
inhibition at 10 µM (CYP2C9): 12 ± 2%
inhibition at 10 µM (CYP2D6): 5 ± 2%
inhibition at 10 µM (CYP3A4): 13 ± 3%
PAMPA-BBB [3]: CNS +

CC(=O)N1CCC(NC(=O)NC23CC4CC(C)(CC(C2)c2cc([N+](=O)[O-])ccc24)C3)CC1 (stereo not drawn) [Compound 17, 1-(1-Acetylpiperidin-4-yl)-3–(9-methyl-2-nitro-5,6,8,9,10,11-hexahydro-7H-5,9:7,11-dimethanobenzo[9]annulen-7-yl)urea]
IC50 (human sEH): 4.5 nM
IC50 (murine sEH): 4.5 nM
Microsomal stability Human, percentage of remaining compound [1]: 100%
Microsomal stability Mouse, percentage of remaining compound [2]: 27%
inhibition at 10 µM (CYP2C9): 20 ± 4%
inhibition at 10 µM (CYP2D6): 8 ± 3%
inhibition at 10 µM (CYP3A4): 10 ± 1%

COc1cc2c(cc1OC)C1CC3(F)CC2CC(NC(=O)NC2CCN(C(=O)C4CCOCC4)CC2)(C1)C3 [Compound 21, 1-(9-Fluoro-2,3-dimethoxy-5,6,8,9,10,11-hexahydro-7H-5,9:7,11-dimethanobenzo[9]annulen-7-yl)-3–(1-(tetrahydro-2H-pyran-4-carbonyl)piperidin-4-yl)urea]
IC50 (murine sEH): 2.9 nM
Microsomal stability Human, percentage of remaining compound [1]: 100%
Microsomal stability Mouse, percentage of remaining compound [2]: 86%
inhibition at 10 µM (CYP2C9): 8 ± 1%
inhibition at 10 µM (CYP2D6): 15 ± 4%
inhibition at 10 µM (CYP3A4): 1 ± 1%
inhibition at 30 min, 10 µM (hERG): 9 ± 1%
Cytotoxicity at the highest concentration tested (SH-SY5Y cells): not cytotoxic
hsEH protein levels (degradation) [4]: No significant degradation was observed
Compound level in brain samples ([5]; 5 mg/kg s.c., multiple time points 0.08–18 h): undetectable in all brain samples
Cmax [5, 7]: 1600 ng/mL
Tmax [5, 7]: 2 h
AUC ([5]; male, CD1, mouse, plasma, sc, 5 mg/kg, AUC^inf): 5600 ng·h/mL
AUC ([5]; male, CD1, mouse, plasma, sc, 5 mg/kg, AUC^last): 5500 ng·h/mL
Prevention of development of paclitaxel-induced neuropathic pain ([6]; 5 mg/kg s.c. 30 min before each paclitaxel dose, tested at 10, 14, 21 days): showed no signs of sensory hypersensitivity at any time point tested
Dose achieving full / maximum antiallodynic effect ([6]; s.c., paclitaxel-treated mice): 5 mg/kg
Time of peak / maximum antiallodynic effect after administration ([6]; s.c., paclitaxel-treated mice): 90 min
PAMPA-BBB [3]: CNS −

C#CCOc1ccccc1CCCCCC(=O)NS(C)(=O)=O [MS-PPOH, N-methanesulfonyl-6–(2-proparyloxyphenyl)hexanamide, reference compound]
Effect on paclitaxel-induced tactile allodynia (alone) ([6]; 20 mg/kg s.c., day 10 after paclitaxel): did not alter paclitaxel-induced tactile allodynia
Effect of MS-PPOH on the antiallodynic effect of 21 ([6]; MS-PPOH 20 mg/kg s.c. 5 min before 21 5 mg/kg s.c., measured at 90 min): fully abolished the effect of compound 21

CC(=O)N1CCC(NC(=O)NC23CC4CC(C)(CC(C2)c2c(F)cccc24)C3)CC1 (stereo not drawn) [Compound 13, 1-(1-Acetylpiperidin-4-yl)-3–(1-fluoro-9-methyl-5,6,8,9,10,11-hexahydro-7H-5,9:7,11-dimethanobenzo[9]annulen-7-yl)urea]
IC50 (murine sEH): 0.8 nM
Microsomal stability Human, percentage of remaining compound [1]: 16%
Microsomal stability Mouse, percentage of remaining compound [2]: 1%
inhibition at 10 µM (CYP2C9): 6 ± 3%
inhibition at 10 µM (CYP2D6): 1 ± 2%
inhibition at 10 µM (CYP3A4): 9 ± 3%
PAMPA-BBB [3]: CNS +

NCC1(CC(=O)O)CCCCC1 [gabapentin, reference compound]
Dose achieving full / maximum antiallodynic effect ([6]; s.c., paclitaxel-treated mice): 20 mg/kg

CC(=O)N1CCC(NC(=O)NC23CC4CC(C)(CC(C2)c2cc(N)ccc24)C3)CC1 (stereo not drawn) [Compound 18, 1-(1-Acetylpiperidin-4-yl)-3–(2-amino-9-methyl-5,6,8,9,10,11-hexahydro-7H-5,9:7,11-dimethanobenzo[9]annulen-7-yl)urea]
IC50 (human sEH): 25 nM
IC50 (murine sEH): 17.1 nM

COc1ccc2c(c1)C1CC3(C)CC2CC(NC(=O)NC2CCN(C(C)=O)CC2)(C1)C3 (stereo not drawn) [Compound 15, 1-(1-Acetylpiperidin-4-yl)-3–(2-methoxy-9-methyl-5,6,8,9,10,11-hexahydro-7H-5,9:7,11-dimethanobenzo[9]annulen-7-yl)urea]
IC50 (murine sEH): 1.7 nM
Microsomal stability Human, percentage of remaining compound [1]: 33%
Microsomal stability Mouse, percentage of remaining compound [2]: 32%
inhibition at 10 µM (CYP2C9): 12 ± 3%
inhibition at 10 µM (CYP2D6): 8 ± 2%
inhibition at 10 µM (CYP3A4): 12 ± 4%

COc1cc2c(cc1OC)C1CC3(C)CC2CC(NC(=O)NC2CCN(C(=O)C4CCOCC4)CC2)(C1)C3 [Compound 20, 1-(2,3-Dimethoxy-9-methyl-5,6,8,9,10,11-hexahydro-7H-5,9:7,11-dimethanobenzo[9]annulen-7-yl)-3–(1-(tetrahydro-2H-pyran-4-carbonyl)piperidin-4-yl)urea]
IC50 (human sEH): 0.4 nM
IC50 (murine sEH): 1.9 nM
Microsomal stability Human, percentage of remaining compound [1]: 80%
Microsomal stability Mouse, percentage of remaining compound [2]: 96%
inhibition at 10 µM (CYP2C9): 22 ± 2%
inhibition at 10 µM (CYP2D6): 36 ± 5%
inhibition at 10 µM (CYP3A4): 43 ± 1%
inhibition at 30 min, 10 µM (hERG): 11 ± 2%

CC(=O)c1ccc2c(c1)C1CC3(C)CC2CC(NC(=O)NC2CCN(C(C)=O)CC2)(C1)C3 (stereo not drawn) [Compound 16, 1-(2-Acetyl-9-methyl-5,6,8,9,10,11-hexahydro-7H-5,9:7,11-dimethanobenzo[9]annulen-7-yl)-3–(1-acetylpiperidin-4-yl)urea]
IC50 (human sEH): 4.1 nM
IC50 (murine sEH): 6.7 nM
Microsomal stability Human, percentage of remaining compound [1]: 92%
Microsomal stability Mouse, percentage of remaining compound [2]: 70%
inhibition at 10 µM (CYP2C9): 9 ± 3%
inhibition at 10 µM (CYP2D6): 7 ± 2%
inhibition at 10 µM (CYP3A4): 3 ± 2%

COc1cc2c(cc1OC)C1CC3(C)CC2CC(NC(=O)NC2CCN(C(C)=O)CC2)(C1)C3 [Compound 19, 1-(1-Acetylpiperidin-4-yl)-3–(2,3-dimethoxy-9-methyl-5,6,8,9,10,11-hexahydro-7H-5,9:7,11-dimethanobenzo[9]annulen-7-yl)urea]
IC50 (human sEH): 1.3 nM
IC50 (murine sEH): 2.2 nM
Microsomal stability Human, percentage of remaining compound [1]: 100%
Microsomal stability Mouse, percentage of remaining compound [2]: 70%
inhibition at 10 µM (CYP2C9): 8 ± 1%
inhibition at 10 µM (CYP2D6): 2 ± 2%
inhibition at 10 µM (CYP3A4): 15 ± 4%

Source: publication PMC12551014 (Journal of Enzyme Inhibition and Medicinal Chemistry, 2025)
